How the values were obtained:
[1] = test system: Ire1 (XBP-1 YFP reporter in IMR90 cells); assay: Cell-based IRE1 inhibition assay with human fibroblasts (IMR90), XBP-1 YFP reporter; conditions: compound 2 uM, 8 hrs
Method: FIG. 6 depicts histogram results of cell-based Ire1 inhibition assay employing IMR90 human diploid fibroblastic cell line. […] Induction of XBP-1 YFP reporter was assayed by fluorescence microscopy. See Example 6. Test compounds (left to right): DMSO; Tg; bortezomib; MG132; Irestatin; AD71c; AD73c; AD58; AD59. Ordinate: relative fluorescence (proportional to Ire1 activity.)
A cell-based assay of Ire1 inhibition was conducted on human diploid fibroblastic cells (IMR90) expressing an XBP-1 YFP (yellow fluorescent protein) reporter. The effect of test compound or control on UPR induction was assayed by fluorescence microscopy to measure the fluorescence of YFP expressed in a Ire1-dependent manner. The XBP1-YFP reporter only produces YFP after a frameshift produced by splicing of its intron by activated IRE1. As known in the art, higher fluorescence intensity means higher Ire1 and UPR activity. Conversely, lower fluorescence intensity means inhibitions of Ire1 and UPR.
IMR90 stable retroviral transductants expressing an XBP-1 YTP reporter were plated in a 96 well clear bottom plate and allowed to recover overnight (80% confluency). […] Induction of the XBP1-YFP reported was assayed by fluorescence microscopy (GE Healthcare IN Cell Analyzer 2000). The number of YFP cells and the total number of cells, as judged by nuclear staining (Hoechst) were counted in each well. […]

hIre1 = hIre1 (Homo sapiens, UniProt O75460); assay: Titrations of Ire1 inhibitors to measure Ki using 1 μM hIre1; assay type: biochemical; conditions: 1 μM hIre1, 5′-32p-HP21, 30° C.
Method: Recombinant human Ire1-alpha (1 μM f/c) was mixed with reaction buffer, inhibitor solution in DMSO, and ^32P-labeled RNA substrate having sequence 5′-UGCACCUCUGCAGCAGGUGCA (SEQ ID NO:1). Reactions were conducted at 30° C. and initiated by adding the RNA to reaction pre-mix containing all the components minus the RNA. The final reaction contained: 20 mM HEPES pH 7, 70 mM NaCl, 2 mM MgCl2, 5% glycerol, 4 mM DTT, 10% DMSO, 1 μM Ire1 and <1 nM 32P-labeled RNA. (The reaction mixture may be modified by using different components or concentrations, different RNA substrate, or different Ire1 protein construct.)
At time intervals (0 seconds, ˜10 seconds, ˜30 seconds, and ˜3 minutes), 1 μl aliquots of reaction mixture were taken and quenched in 10 M Urea, 0.1% SDS. Samples were analyzed by denaturing polyacrylamide gel electrophoresis and quantified using Typhoon phosphorImager.
Inhibition was measured by the extent of RNA cleavage slowdown in the presence of inhibitor (0.3-100 μM) compared to reaction containing no inhibitors.

[2] = biological target: Recombinant human Ire1-alpha (Homo sapiens, UniProt O75460); assay: In vitro inhibition assay, cleavage of 32P-stem-loop RNA by human Ire1; assay type: biochemical; conditions: in vitro cleavage of 32P-stem-loop RNA by human Ire1, AD series; Control (no inhibitor) 8.8310e−3
Method: Recombinant human […]) was mixed with reaction buffer, inhibitor solution in DMSO, and ^32P-labeled RNA substrate having sequence 5'-[…] NO:1). Reactions were conducted at 30° C. and initiated by adding the RNA to reaction pre-mix containing all the components minus the RNA. […] (The reaction mixture may be modified by using different components or concentrations, different RNA substrate, or different Ire1 protein construct.) At time intervals (0 seconds, 10 seconds, 30 seconds, and 3 minutes), 1 μl aliquots of reaction mixture were taken and quenched in 10 M Urea, 0.1% SDS. Samples were analyzed by denaturing polyacrylamide gel electrophoresis and quantified using Typhoon phosphorImager. […] Reactions with Irestatin and exemplary compounds were conducted analogously. Irestatin was a gift obtained from the SPECS screen available as 5 mM solution in DMSO at UCSF small molecule discovery center.

yIre1 = biological target: T1, yIre1 (Saccharomyces cerevisiae, UniProt P32361); assay: RNase cleavage assay (yIre1 activation); assay type: biochemical, yeast; conditions: yIre1 RNA cleavage, 30° C., 2 mM ADP; Control (no inhibitor) 0.000504
T1 sequence (P32361 19-1115): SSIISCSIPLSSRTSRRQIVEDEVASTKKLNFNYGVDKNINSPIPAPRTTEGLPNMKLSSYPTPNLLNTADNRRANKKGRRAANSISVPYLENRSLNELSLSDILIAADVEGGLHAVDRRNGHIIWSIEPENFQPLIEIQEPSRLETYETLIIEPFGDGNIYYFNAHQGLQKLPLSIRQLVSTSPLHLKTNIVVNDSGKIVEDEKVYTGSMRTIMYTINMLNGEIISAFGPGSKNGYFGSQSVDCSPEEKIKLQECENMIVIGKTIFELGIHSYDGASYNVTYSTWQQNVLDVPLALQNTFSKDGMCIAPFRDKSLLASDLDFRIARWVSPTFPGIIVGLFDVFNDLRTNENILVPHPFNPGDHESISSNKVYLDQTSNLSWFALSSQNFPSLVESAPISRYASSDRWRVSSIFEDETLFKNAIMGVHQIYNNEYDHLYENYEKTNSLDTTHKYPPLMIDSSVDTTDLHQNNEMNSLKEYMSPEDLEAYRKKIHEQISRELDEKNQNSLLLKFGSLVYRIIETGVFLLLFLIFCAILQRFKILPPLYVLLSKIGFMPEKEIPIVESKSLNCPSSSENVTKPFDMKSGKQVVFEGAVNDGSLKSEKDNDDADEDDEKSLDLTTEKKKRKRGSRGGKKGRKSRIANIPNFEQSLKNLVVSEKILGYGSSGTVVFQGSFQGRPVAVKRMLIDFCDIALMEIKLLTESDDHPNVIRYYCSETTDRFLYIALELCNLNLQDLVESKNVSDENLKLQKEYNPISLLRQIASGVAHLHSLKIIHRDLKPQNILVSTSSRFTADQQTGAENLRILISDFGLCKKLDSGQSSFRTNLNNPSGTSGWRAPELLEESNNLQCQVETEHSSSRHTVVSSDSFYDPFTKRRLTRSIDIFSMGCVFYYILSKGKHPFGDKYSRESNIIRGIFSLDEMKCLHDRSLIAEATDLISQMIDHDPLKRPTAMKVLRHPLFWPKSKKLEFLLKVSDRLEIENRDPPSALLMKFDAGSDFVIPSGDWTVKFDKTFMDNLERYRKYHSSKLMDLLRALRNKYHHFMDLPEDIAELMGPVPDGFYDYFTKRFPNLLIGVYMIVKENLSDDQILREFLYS
Method: RNA cleavage reactions were conducted at 30° C. in buffer containing 20 mM HEPES (pH 7.5), 70 mM NaCl, 2 mM ADP (pH 7.0), 2 mM Mg(OAc)2, 5 mM DTT, 5% glycerol, less than 1 nM ^32p-labeled RNA substrate, and 3 nM-[…] Ire1. Reaction solutions and buffers were designed using Biochem Lab Solutions 3.5. Reactions were prepared such that 1 μl of RNA was added to 9 μl of pre-warmed reaction mixture containing all components except RNA. Typically, 3-10 minute time courses were collected starting from 5 seconds for the first time point. At time intervals, 1 μl of solution was withdrawn from each reaction and mixed with 6 μl stop solution containing 10 M urea, 0.1% SDS, 0.1 mM EDTA, 0.05% xylene cyanol, and 0.05% bromophenol blue. The samples were separated by a denaturing 10% PAGE and exposed on a phosphor storage screen. The screens were scanned on a Storm or a Typhoon instrument and quantified using ImageQuant 5.0 or GelQuant.NET 1.4 programs. The data were plotted and fit in SigmaPlot 6.0.

[3] = test system: Ire1 (XBP-1 luciferase reporter in MEFS); assay: Cell-based IRE1 inhibition assay with mouse embryonic fibroblasts, XBP-1 luciferase reporter; conditions: compound 5 uM, 8 hrs
Method: FIG. 5 depicts histogram results of cell-based Ire1 inhibition assay in mouse embryonic fibroblasts (MEFS). Primary MEFS isolated from a transgenic mouse expressing an XBP1 luciferase reporter were incubated with either thapsigargin (Tg) or tunicamycin (Tm) in the absence or presence of test compound or control. See Example 5. Treatment order in histogram (left to right): no compound, AD73c at 5 uM, mitoxan (10 uM). Incubation conditions (left to right): DMSO, Tg (600 nM), Tm (2.6 ug/mL). Legend: RL: relative luminosity (arbitrary units); DMSO (no fill); Tg (diagonal stripe); Mitoxan (diamond fill).
A cell-based assay of Ire1 inhibition was conducted on mouse embryonic fibroblasts (MEFS) isolated from a transgenic mouse expressing an XBP-1 luciferase reporter (Riken Research, Japan). The XBP-1 luciferase reporter produces a frameshift and production of luciferase only after splicing of the intron by activated IRE1. […]
Primary MEFs expressing an XBP1 luciferase reporter were plated in a 96 well white plate and allowed to recover overnight (80% confluency). […] Luciferase activity was measured by the additional of 50 uL of One-Glo™ Luciferase Assay System (Promega), and the relative luminescence was quantitated using a luminometer (Analyst).
As depicted in the histogram of FIG. 5, the luminescence of luciferase expressed in Ire1-dependent assay was measured to assess Ire1 and UPR activity. […]

hIre1, sequence (O75460 19-977): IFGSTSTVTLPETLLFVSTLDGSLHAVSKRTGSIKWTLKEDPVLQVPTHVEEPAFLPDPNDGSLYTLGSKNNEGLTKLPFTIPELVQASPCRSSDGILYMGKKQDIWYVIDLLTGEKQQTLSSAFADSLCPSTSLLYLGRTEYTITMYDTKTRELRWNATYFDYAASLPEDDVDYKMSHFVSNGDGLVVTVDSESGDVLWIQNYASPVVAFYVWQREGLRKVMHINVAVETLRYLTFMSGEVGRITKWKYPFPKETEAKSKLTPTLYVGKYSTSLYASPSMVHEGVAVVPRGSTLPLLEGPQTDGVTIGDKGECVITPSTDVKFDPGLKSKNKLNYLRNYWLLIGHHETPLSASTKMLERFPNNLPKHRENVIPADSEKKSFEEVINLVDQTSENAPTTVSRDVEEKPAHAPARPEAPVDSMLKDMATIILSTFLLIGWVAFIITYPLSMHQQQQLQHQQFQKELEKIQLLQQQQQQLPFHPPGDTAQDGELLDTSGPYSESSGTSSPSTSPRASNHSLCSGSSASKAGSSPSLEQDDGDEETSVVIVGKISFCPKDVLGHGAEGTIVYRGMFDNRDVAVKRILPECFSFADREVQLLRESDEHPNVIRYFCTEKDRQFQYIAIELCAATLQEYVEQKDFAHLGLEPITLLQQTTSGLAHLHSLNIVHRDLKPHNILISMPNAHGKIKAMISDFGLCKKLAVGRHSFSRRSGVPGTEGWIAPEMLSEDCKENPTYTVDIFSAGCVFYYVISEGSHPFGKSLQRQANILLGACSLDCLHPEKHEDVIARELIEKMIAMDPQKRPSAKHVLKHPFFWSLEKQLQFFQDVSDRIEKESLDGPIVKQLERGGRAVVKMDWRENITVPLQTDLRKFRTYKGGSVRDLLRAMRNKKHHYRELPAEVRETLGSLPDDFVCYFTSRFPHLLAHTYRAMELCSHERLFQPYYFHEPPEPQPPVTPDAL
Recombinant human Ire1-alpha, sequence (O75460 19-977): as above

Row | Ki (hIre1) | Ire1 activity [2] | Ire1 activity (yIre1) | rate suppression (hIre1) | SMILES | inhibition of UPR (XBP-1 YFP reporter) induced by Tg [1] | inhibition of XBP1 luciferase induction by thapsigargin (Tg) ([3]; Tg 600 nM) | inhibition of XBP1 luciferase induction by tunicamycin (Tm) ([3]; Tm 2.5 ug/mL)
1 | – | – | – | – | CC(C)n1nc(-c2ccc(NC(=O)Nc3ccccc3)cc2)c2c(N)ncnc21 [AD58] | inhibit UPR | – | –
2 | ~1 µM | 3.0550e−3 | 0.0001 | – | Cn1nc(-c2ccc(NC(=O)Nc3cccc(C(F)(F)F)c3)cc2)c2c(N)ncnc21 [AD59, 1-(4-(4-amino-1-methyl-1H-pyrazolo[3,4-d]pyrimidin-3-yl)phenyl)-3-(3-(trifluoromethyl)phenyl)urea] | even more strongly | – | –
3 | – | 2.9310e−4 | – | 100 fold | Nc1ncnc2c1c(-c1ccc(NC(=O)Nc3cccc(C(F)(F)F)c3)cc1)nn2[C@@H]1CCN(C(=O)Nc2cccc(C(F)(F)F)c2)C1 [AD73c] | – | strongly inhibit | strongly inhibit
